Experimental data published in US12655462B2, “PLK1 target phosphorylation status and treatment of cancer with PLK1 inhibitors” (Cardiff Oncology, Inc., priority 2018, dated 2026).
Like-named read-outs stand apart in the source and are kept apart here.

Experiments:
PLK1 = PLK1 (Homo sapiens, UniProt P53350); conditions: versus previous PLK inhibitors; cited from earlier work
[1] = tested on: disseminated model of AML; conditions: combination therapy with cytarabine; cited from earlier work
[2] = tested on: advanced/metastatic solid tumors; conditions: adult subjects; cited from earlier work
[3] = biological target: T1, PLK1 phosphorylation of TCTP (Homo sapiens, UniProt P53350); assay: pTCTP (Ser46) in patient blood PBMC before and 3 hours after onvansertib; format: in vivo; design: Protein extracts were prepared from PBMC and cell lines using M-PER buffer; from tissue; host or cells: peripheral blood mononuclear cells from AML patients' blood; conditions: for decrease in pTCTP in patient blood: three patients, as early as three hours
T1 sequence (P53350 whole entry): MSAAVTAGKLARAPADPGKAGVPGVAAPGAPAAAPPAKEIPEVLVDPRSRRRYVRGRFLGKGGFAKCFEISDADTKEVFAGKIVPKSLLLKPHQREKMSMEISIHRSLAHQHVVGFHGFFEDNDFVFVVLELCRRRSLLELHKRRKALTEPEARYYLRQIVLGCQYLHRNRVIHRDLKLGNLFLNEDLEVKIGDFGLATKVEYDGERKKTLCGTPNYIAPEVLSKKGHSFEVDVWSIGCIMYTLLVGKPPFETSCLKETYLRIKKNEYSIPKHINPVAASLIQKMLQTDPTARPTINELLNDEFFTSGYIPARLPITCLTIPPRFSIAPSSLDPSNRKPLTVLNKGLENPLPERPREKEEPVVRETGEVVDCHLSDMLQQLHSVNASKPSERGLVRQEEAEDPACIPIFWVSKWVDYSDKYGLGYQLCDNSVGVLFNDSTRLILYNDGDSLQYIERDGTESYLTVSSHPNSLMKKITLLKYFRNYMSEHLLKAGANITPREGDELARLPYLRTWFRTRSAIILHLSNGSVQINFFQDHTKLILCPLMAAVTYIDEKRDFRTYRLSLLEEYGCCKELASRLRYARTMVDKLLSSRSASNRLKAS
Experimental: Determination of phosphorylation of serine 46 of TCTP in blood was as follows. Peripheral blood mononuclear cells (PBMC) were isolated from a Cellsave blood tube (Menarini Silicon Biosystems) using Leucosep centrifuge tubes (VWR) and Histopaque-1077 (Sigma) according to the manufacturer's recommendations.
(§1) Protein extracts were prepared from PBMC and cell lines using M-PER buffer (ThermoFisher) with 150 mM NaCl and 1× protease and phosphatase inhibitors cocktails (ThermoFisher). Protein concentration was measured with the Pierce BCA protein assay kit (ThermoFisher).
(§2) Western blots were performed as Simple Western™ assays using the Wes system (ProteinSimple), a combination of capillary electrophoresis and immunodetection techniques, following the manufacturer's protocols. Briefly, extracts with equal protein concentration were mixed with 0.1× sample buffer and 5× fluorescent master mix. Denatured protein samples, biotinylated ladder (ProteinSimple), primary antibodies, horseradish peroxidase (HRP)-conjugated secondary antibody (ProteinSimple), chemiluminescence substrate and wash buffer were dispensed into respective wells of the assay plate and placed in Wes equipment. Primary antibodies were purchased from Cell Signaling Technology: phospho-TCTP-Ser46 (#5251) and TCTP (#5128), and used at a concentration of 1:50. Quantitative analysis was performed using Compass software (ProteinSimple). Signal intensity (area) of pTCTP was normalized to the peak area of TCTP and reported as % pTCTP.
PLK1 inhibition in patients was assessed in blood taken 3-hours following administration of onvansertib at peak concentration (Cmax).
Blood samples were collected before, and 3 hours after, onvansertib treatment from patients enrolled in the trial described in Example 1. The onvansertib treatments were 12, 18, 27, or 40 mg/m^2. pTCTP and TCTP were assessed by Western-Blot and % pTCTP (pTCTP/TCTP) was quantified.
In these studies, biomarker positivity was defined as ≥50% decrease in % pTCTP from T=0 to T=3h.

[4] = biological target: T1, PLK1 phosphorylation of TCTP; assay: Inhibition of pTCTP in vitro, western blot (FIG. 2B)
cancer cell lines = conditions: cited from earlier work
[5] = tested on: cell lines, both from solid as well as hematologic tumors; conditions: large number of cell lines, solid and hematologic tumors; cited from earlier work
[6] = tested on: acute myeloid leukemia (AML); assay: Clinical response of AML patients, trial NCT03303339 (leukemic cells in blood and bone marrow); format: in vivo, human
Description: Patient data provided herein is from patients in clinical trial NCT03303339, Onvansertib in Combination With Either Low-dose Cytarabine (LDAC) or Decitabine in Adult Patients With Acute Myeloid Leukemia (AML) (ClinicalTrials.gov).
Responders were defined as patients showing a decrease in circulating and bone marrow blasts during treatment.

[7] = cited from earlier work; for half-life: oral administration
xenograft tumor = conditions: mice, oral administration, well tolerated doses; cited from earlier work
[8] = biological target: T2, PLK1 phosphorylation of TCTP in MV4-11 and HL-60 (Homo sapiens, UniProt P53350); assay: pTCTP in AML cell lines MV4-11 and HL-60, western blot (FIG. 2C); format: cell-based; conditions: MV4-11 and HL-60, 15 minutes; onvansertib 0.1 or 0.5 μM, cytarabine 10 or 100 nM, decitabine 0.2 or 1 μM
T2 construct: endogenous in cells; host or cells: MV4-11 and HL-60 AML cell lines
T2 sequence (P53350 whole entry): as above
Experimental: as §1
as §2, with “Signal intensity (area) of pTCTP was normalized to the peak area of TCTP and reported as % pTCTP.” left out
AML cell lines MV4-11 and HL-60 were treated for 15 minutes with onvansertib (PCM-075) (0.1 or 0.5 μM), cytarabine (10 or 100 nM) or decitabine (0.2 or 1 μM). Proteins were then extracted from the cells and assessed for pTCTP.

[9] = tested on: HT29 human colon adenocarcinoma xenografts; conditions: combination with irinotecan, compared to each agent alone; cited from earlier work
[10] = combination with LDAC or decitabine

PLK1, sequence (P53350 whole entry): as above

Compound: CN1CCN(c2ccc(OC(F)(F)F)c(Nc3ncc4c(n3)-c3c(c(C(N)=O)nn3CCO)CC4)c2)CC1 [onvansertib, 1-(2-hydroxyethyl)-8-{[5-(4-methylpiperazin-1-yl)-2-(trifluoromethoxy)phenyl]amino}-4,5-dihydro-1H-pyrazolo[4,3-h] quinazoline-3-carboxamide]
- selectivity for PLK1 (PLK1): high selectivity for PLK1 only
- survival of animals [1]: prolonged survival
- evaluable patients with stable disease [2]: 5 of 16
- recommended phase 2 dose [2]: 24 mg/m^2
- decrease of pTCTP in cells of non-responders ([3]; 5 non-responders, higher dose 18 mg/m^2): did not show a decrease of pTCTP
- decrease in pTCTP ([3]; the one biomarker negative patient with objective response): 40%
- decrease in pTCTP in patient blood ([3]; onvansertib and LDAC): only the responder showed a decrease in pTCTP
- decrease in pTCTP in patient blood ([3]; onvansertib and decitabine): only the two responders showed a decrease in pTCTP
- inhibition of pTCTP in vitro [4]: inhibits pTCTP in vitro, in a dose-dependent manner
- mitotic cell-cycle arrest followed by apoptosis (cancer cell lines): potently causes a mitotic cell-cycle arrest followed by apoptosis
- potency in proliferation assays [5]: low nanomolar activity
- biomarker positive patients with a decrease in BM blasts≥50% [6, 10]: six out of the nine
- patients with complete response [CR] or CR with incomplete hematological recovery [CRi] [6, 10]: Four
- patients exhibiting a response (decrease in leukemic cells in blood and bone marrow) ([6]; in combination with low-dose cytarabine (LDAC) or decitabine): Three of 6
- leukemic cells in bone marrow, decrease ([6]; patient 07-009, combination with decitabine): 96% to 55%
- leukemic cells in bone marrow, decrease ([6]; patient 07-011, combination with decitabine): 55% to 15%
- half-life [7]: about 24 hours
- half-life ([7]; listed as Onvansertib): ~24 h
- oral bioavailability ([7]; rodent and nonrodent species): good oral bioavailability
- xenograft tumor growth (xenograft tumor): inhibits xenograft tumor growth
- inhibition of pTCTP [8]: inhibited pTCTP
- tumor regression [9]: enhanced tumor regression

Compound: Nc1ccn([C@@H]2O[C@H](CO)[C@@H](O)[C@@H]2O)c(=O)n1 [cytarabine]
- inhibition of pTCTP [8]: but not cytarabine or decitabine, inhibited pTCTP
